Article PMC10487436, “Towards Anticancer and Antibacterial Agents: Design and Synthesis of 1,2,3-Triazol-quinobenzothiazine Derivatives” (International Journal of Molecular Sciences, 2023)
Converted amounts (≈) assume the structure as drawn.

What was measured:
[1] = system: SNB-19 (human glioblastoma); assay: WST-1 proliferation assay, SNB-19; type: cell-based; details: Homo sapiens, SNB-19, 72 h exposure
Method: (§1) Compounds were evaluated for their antiproliferative activity using three cultured cell lines: A549 (human lung carcinoma, ATCC, Manassas, VA, USA), SNB-19 (human glioblastoma, DSMZ, German Collection of Microorganisms and Cell Cultures), T-47D (human breast cancer, ATCC, Manassas, VA, USA), and NHDF (normal human dermal fibroblasts, ATCC, Manassas, VA, USA). The cultured cells were kept at 37 °C and 5% CO2. The cells were seeded (1 × 10^4 cells/well/100 μL DMEM supplemented with 10% FCS, streptomycin, and penicillin) using 96-well plates (corning). Cells were counted in a hemocytometer (Burker chamber) using a phase contrast Olympus IX50 microscope equipped with a Sony SSC-DC58 AP camera and an Olympus DP10 digital camera.
(§2) The antiproliferative effect of the compounds exerted on cancer and normal cells was determined using the Cell Proliferation Reagent WST-1 assay (Roche Molecular Biochemicals, Mannheim, Germany). This assay is based on a colorimetric method using the enzymatic ability of viable cells to cause the bright, red-colored stable tetrazolium monosodium salt [2-(4-iodophenyl)-3-(4-nitrophenyl)-5-(2,4-disulfophenyl)–2H-tetra-zolium] to transform into the dark, red-colored soluble formazan. […] An increase in the amount of formazan dye formed correlated with the number of metabolically active cells in the culture. The formazan dye produced by metabolically active cells was quantified by absorbance readings at appropriate wavelengths. The examined cells were exposed to the tested compounds (1 mM DMSO stock) for 72 h at various concentrations (0.1–100 μM). The control was performed in order to eliminate the DMSO effect at the concentration used. Cell cultures were incubated with WST-1 (10 μL) for 1 h. The absorbance of the samples was measured against a background control at 450 nm using a microplate reader with a reference wavelength at 600 nm. The obtained results are expressed as the means of at least two independent experiments performed in triplicate. The antiproliferative activity of the tested compounds was compared to that of cisplatinum. The values of IC50 (a concentration of a compound that is required for 50% inhibition) were calculated from the dose-response relationship with respect to control. The results were reported as the mean (±std) of three separate experiments.

[2] = system: A549 (human lung carcinoma); assay: WST-1 proliferation assay, A549; type: cell-based; details: Homo sapiens, A549, 72 h exposure
Method: as §1, §2

[3] = system: T-47D (human breast cancer); assay: WST-1 proliferation assay, T47D; type: cell-based; details: Homo sapiens, T47D, 72 h exposure
Method: as §1, §2

[4] = system: NHDF (normal human dermal fibroblasts); assay: WST-1 proliferation assay, NHDF; type: cell-based; details: Homo sapiens, NHDF, normal cells, 72 h exposure
Method: as §1, §2

[5] = system: Staphylococcus aureus ATCC 29213; assay: MIC, microtitration broth method, SA; type: cell-based; details: ATCC29213, 24 h at 37 °C
Method: (§3) In vitro antibacterial activity of the synthesized compounds was evaluated against representatives of multidrug-resistant bacteria, three clinical isolates of methicillin-resistant S. aureus: clinical isolates of animal origin, MRSA 63718 (Department of Infectious Diseases and Microbiology, Faculty of Veterinary Medicine, University of Veterinary Sciences Brno, Czech Republic), carrying the mecA gene; and MRSA SA 630 and MRSA SA 3202 [52] (National Institute of Public Health, Prague, Czech Republic), both of human origin. […] Vancomycin- and methicillin-susceptible S. aureus ATCC 29213 and vancomycin-susceptible Enterococcus faecalis ATCC 29212, obtained from the American Type Culture Collection, were used as the reference and quality control strains. Three vanA gene-carrying vancomycin-resistant isolates of E. faecalis (VRE 342B, VRE 368, VRE 725B) were provided by Oravcova et al..
(§4) The minimum inhibitory concentrations (MICs) were evaluated by the microtitration broth method according to the CLSI, with some modifications. The compounds were dissolved in DMSO (Sigma, St. Louis, MO, USA) to obtain a concentration of […] and diluted in a microtitration plate in an appropriate medium, i.e., Cation Adjusted Mueller–Hinton Broth (CaMH, Oxoid, Basingstoke, UK) for staphylococci, and Brain Heart Infusion Broth (BHI, Oxoid) for enterococci, to reach the final concentration of 256–0.125 µg/mL. Microtiter plates were inoculated with test micro-organisms so that the final concentration of bacterial cells was 10^5. […] A drug-free control and a sterility control were included. The plates were incubated for 24 h at 37 °C for staphylococci and enterococci. […] The experiments were repeated three times.

[6] = system: methicillin-resistant S. aureus SA 3202; assay: MIC, microtitration broth method, MRSA1; type: cell-based; details: Staphylococcus aureus; 24 h at 37 °C
Method: as §3, §4

[7] = system: methicillin-resistant S. aureus SA 630; assay: MIC, microtitration broth method, MRSA2; type: cell-based; details: Staphylococcus aureus; 24 h at 37 °C
Method: as §3, §4

[8] = system: methicillin-resistant S. aureus 63718; assay: MIC, microtitration broth method, MRSA3; type: cell-based; details: Staphylococcus aureus; 24 h at 37 °C
Method: as §3, §4

[9] = system: Enterococcus faecalis ATCC 29213; assay: MIC, microtitration broth method, EF; type: cell-based; details: ATCC29213, 24 h at 37 °C
[10] = system: vancomycin-resistant E. faecalis VRE 342B; assay: MIC, microtitration broth method, VRE1; type: cell-based; details: Enterococcus faecalis, 24 h at 37 °C
Method: as §3, §4

[11] = system: vancomycin-resistant E. faecalis VRE 368; assay: MIC, microtitration broth method, VRE2; type: cell-based; details: Enterococcus faecalis, 24 h at 37 °C
Method: as §3, §4

[12] = system: vancomycin-resistant E. faecalis VRE 725B; assay: MIC, microtitration broth method, VRE3; type: cell-based; details: Enterococcus faecalis, 24 h at 37 °C
Method: as §3, §4

[13] = system: Mycobacterium smegmatis ATCC 700084; assay: MIC, broth dilution micro-method, MS; type: cell-based; details: Mycolicibacterium smegmatis, ATCC700084, 72 h; 3 days at 37 °C
[14] = system: Mycobacterium marinum CAMP 5644; assay: MIC, broth dilution micro-method, MM; type: cell-based; details: CAMP5644, 504 h, 21 days at 28 °C
[15] = system: Staphylococcus aureus ATCC 29213; assay: MBC, agar aliquot subculture method, SA; type: cell-based; details: ATCC29213
Method: (§5) For the above-mentioned strains/isolates, the agar aliquot subculture method was used as a test for bactericidal agents. After the MIC value determination, the inoculum was transferred to CaMH (Oxoid) for staphylococci, BHI (Oxoid) for enterococci, and Middlebrook 7H9 (Difco) for mycobacteria medium using a multipoint inoculator. As indicated above, the plates were incubated on a thermostat at 37 °C for the appropriate time for each micro-organism. The lowest concentration of test compound at which ≤5 colonies were obtained was then evaluated as MBC, corresponding to a 99.9% decrease in CFU relative to the original inoculum.

[16] = system: methicillin-resistant S. aureus SA 630; assay: MBC, agar aliquot subculture method, MRSA2; type: cell-based; details: Staphylococcus aureus
Method: as §5

[17] = system: methicillin-resistant S. aureus 63718; assay: MBC, agar aliquot subculture method, MRSA3; type: cell-based; details: Staphylococcus aureus
Method: as §5

[18] = system: Mycobacterium smegmatis ATCC 700084; assay: MBC, agar aliquot subculture method, MS; type: cell-based; details: Mycolicibacterium smegmatis, ATCC700084
Method: as §5

[19] = system: Mycobacterium marinum CAMP 5644; assay: MBC, agar aliquot subculture method, MM; type: cell-based; details: CAMP5644
Method: as §5

[20] = system: human cancer cell lines (A549, SNB-19, and T-47D); assay: WST-1 proliferation assay, cancer cell line panel; type: cell-based; details: SNB-19, A549, T47D, read-out: IC50 range over the tested cancer cell lines
Method: as §1
The antiproliferative effect of the compounds exerted on cancer and normal cells was determined using the Cell Proliferation Reagent WST-1 assay (Roche Molecular Biochemicals, Mannheim, Germany). […] The formazan dye produced by metabolically active cells was quantified by absorbance readings at appropriate wavelengths. […] The absorbance of the samples was measured against a background control at 450 nm using a microplate reader with a reference wavelength at 600 nm. The obtained results are expressed as the means of at least two independent experiments performed in triplicate. […]

[21] = system: methicillin-resistant S. aureus SA 3202; assay: MBC, agar aliquot subculture method, MRSA1; type: cell-based; details: Staphylococcus aureus
Method: as §5

[22] = system: Mycobacterium smegmatis ATCC 700084; details: 3 days; for Conc.: lowest multiple of MBC with at least 70% inhibition of respiratory activity / Conc.: lowest multiple of MIC with at least 70% inhibition of respiratory activity: MTT; for M. smegmatis Respiration Inhibition: at the concentration (lowest multiple of MIC with at least 70% inhibition)
[23] = system: vancomycin-resistant E. faecalis VRE 368; assay: MBC, agar aliquot subculture method, VRE2; type: cell-based; details: Enterococcus faecalis
Method: as §5

[24] = system: Enterococcus faecalis; assay: MBC, agar aliquot subculture method, EF; type: cell-based; details: ATCC29213
Method: as §5

[25] = system: methicillin-resistant S. aureus 63718; parameters: method as in PMID 20386717; details: MRSA 63718, characterisation of the isolate; cited from earlier work

IC50 [1] [µM] | IC50 [2] [µM] | IC50 [3] [µM] | MIC [5] [µM] | MIC [6] [µM] | MIC [7] [µM] | MIC [8] [µM] | MIC [9] [µM] | MIC [10] [µM] | MIC [11] [µM] | MIC [12] [µM] | MIC [13] [µM] | MIC [14] [µM] | SMILES | IC50 [4] [µM] | MBC [15] [µM] | MBC [16] [µM] | MBC [17] [µM] | MBC [18] [µM] | MBC [19] [µM] | MBC [21] [µM] | further results
0.23 ± 0.06 | 0.45 ± 0.08 | 2.1 ± 0.5 | 131 | 262 | 262 | 131 | 262 | 524 | 262 | 262 | 32.7 | 65.5 | C=CCn1cc(COc2ccc3c(c2)Sc2c[n+](C)c4ccccc4c2N3)nn1 [2a, 5-Methyl-9-(1-allyl-1H-1,2,3-triazol-4-yl)methoxy-12H-quino [3,4-b][1,4]benzothiazinium chloride] | 47.8 ± 3.5 | 131 | 262 | 131 | 32.7 | 65.5 | – | IC50 [20]: 0.23 to 2.1 µM
9.6 ± 0.8 | 14.1 ± 0.6 | 4.3 ± 0.2 | 65.5 | 65.5 | 65.5 | 32.7 | 524 | 524 | 524 | 524 | 16.3 | 16.3 | C[n+]1cc2c(c3ccccc31)Nc1c(OCc3cn(CSc4ccccc4)nn3)cccc1S2 [2l, 5-Methyl-11-(1-(phenylthio)methyl-1H-1,2,3-triazol-4-yl)methoxy-12H-quino [3,4-b][1,4] benzothiazinium chloride] | > 100 | 65.5 | 65.5 | 32.7 | 16.3 | 16.3 | 131 | Conc.: lowest multiple of MBC with at least 70% inhibition of respiratory activity [22]: 2× MIC (2× MBC); Conc.: lowest multiple of MIC with at least 70% inhibition of respiratory activity [22]: 2× MIC (2× MBC); M. smegmatis Respiration Inhibition [22]: 87.3%
23.4 ± 1.5 | 16.8 ± 1.2 | 8.9 ± 0.9 | 65.5 | 131 | 131 | 32.7 | 65.5 | > 524 | 524 | 524 | 8.19 | 16.3 | C[n+]1cc2c(c3ccccc31)Nc1ccc(OCc3cn(-c4ccc(Cl)cc4)nn3)cc1S2 [2m, 5-Methyl-9-(1-(4-chlorophenyl)-1H-1,2,3-triazol-4-yl)methoxy-12H-quino [3,4-b][1,4]benzothiazinium chloride] | > 100 | 65.5 | 131 | 32.7 | 8.19 | 16.3 | 131 | MBC [23]: 524 µM; Conc.: lowest multiple of MBC with at least 70% inhibition of respiratory activity [22]: 1× MIC (1× MBC); Conc.: lowest multiple of MIC with at least 70% inhibition of respiratory activity [22]: 1× MIC (1× MBC); viability of M. smegmatis at MIC value ([22]; Mycobacterium smegmatis): less than 70%; M. smegmatis Respiration Inhibition [22]: 87.1%
– | – | – | 5.72 (≈ 2 µg/mL) | > 45.8 | > 45.8 | 45.8 (≈ 16 µg/mL) | 2.81 (≈ 0.982 µg/mL) | – | – | – | – | – | CC1(C)S[C@@H]2[C@H](NC(=O)[C@H](N)c3ccccc3)C(=O)N2[C@H]1C(=O)O [AMP, ampicillin, reference compound] | – | 5.72 (≈ 2 µg/mL) | > 45.8 | 45.8 (≈ 16 µg/mL) | – | – | > 45.8 | MBC [24]: 2.81 µM (≈ 0.982 µg/mL)
– | – | – | – | – | – | – | – | – | – | – | – | – | CN[C@H](CC(C)C)C(=O)N[C@H]1C(=O)N[C@@H](CC(N)=O)C(=O)N[C@H]2C(=O)N[C@H]3C(=O)N[C@H](C(=O)N[C@H](C(=O)O)c4cc(O)cc(O)c4-c4cc3ccc4O)[C@H](O)c3ccc(c(Cl)c3)Oc3cc2cc(c3O[C@@H]2O[C@H](CO)[C@@H](O)[C@H](O)[C@H]2O[C@H]2C[C@](C)(N)[C@H](O)[C@H](C)O2)Oc2ccc(cc2Cl)[C@H]1O [vancomycin] | – | – | – | – | – | – | – | MIC of vancomycin [25]: 2 mg/L
